Experimental findings from patent US5283193A, “Process for producing optically active α-substituted organic acid and microorganism and enzyme used therefor” (Asahi Kasei Kogyo K.K., priority 1988, dated 1994) are described below.

One assay has as its system Nitrilase isolated from Acinetobacter sp. AK 226 strain. Nature of the assay: Substrate specificity of purified nitrilase (hydrolysis of nitriles to organic acid and ammonia).
Settings: not given
Regarding `N#CC(Br)CBr` (stereo not shown) [2,3-Dibromopropionitrile], the Relative activity was 90.3 ×10^2%. `N#CC(N)c1ccccc1` (stereo not shown) [2-Phenylglycinonitrile]: the Relative activity is recorded as 0.000 ×10^2%. The same measure, in the same setting: the figure for `CC#N` [Acetonitrile] is 45.3 ×10^2%. As to `C=CC#N` [Acrylonitrile], the Relative activity is on record as 144 ×10^2%. On to `N#CCCl` [Chloroacetonitrile], for which the Relative activity is listed as 108 ×10^2%. Regarding `N#CCCCC#N` [Glutaronitrile], the Relative activity is recorded as 50.9 ×10^2%. In the case of `N#CCO` [Hydroxyacetonitrile], the Relative activity is reported as 11.4 ×10^2%. Take `C=C(C)C#N` [Methacrylonitrile]: the Relative activity is 68.4 ×10^2%. Turning to `N#Cc1cccnc1` [Nicotinonitrile], the Relative activity was 52.7 ×10^2%. Still for that read-out and setting: for `CC(C)CCC#N` [iso-Capronitrile] the value was 8.12 ×10^2%. Take `N#Cc1cccc(Cl)c1` [m-Chlorobenzonitrile]: the Relative activity is on record as 68.9 ×10^2%. Regarding `N#Cc1cccc([N+](=O)[O-])c1` [m-Nitrobenzonitrile], the Relative activity was 47.6 ×10^2%. Turning to `N#Cc1cccc(C#N)c1` [m-Phthalonitrile], the Relative activity is reported as 80.7 ×10^2%. `Cc1cccc(C#N)c1` [m-Tolunitrile]: the Relative activity is given as 74.8 ×10^2%. Turning to `CCCC#N` [n-Butyronitrile], the Relative activity is listed as 17.4 ×10^2%.

Turning to `CCCCCC#N` [n-Capronitrile], the Relative activity is 5.93 ×10^2%.

As to `N#Cc1ccccc1F` [o-Fluorobenzonitrile], the Relative activity was 50.4 ×10^2%. Take `Cc1ccccc1C#N` [o-Tolunitrile]: the Relative activity is reported as 0.743 ×10^2%. With `N#Cc1ccc(F)cc1` [p-Fluorobenzonitrile], the Relative activity is 83.9 ×10^2%. For the compound `CC(C#N)c1ccccc1` (stereo not drawn) [α-Phenylpropionitrile], the Relative activity is 0.534 ×10^2%. The same measure, in the same setting: for Thiopheneacetonitrile the value was 45.5 ×10^2%.

The same assay, now with this note: racemic substrate.
On to `CC(C)Cc1ccc(C(C)C#N)cc1` (stereo not shown), for which the “Reaction rate with the S isomer compared with the R isomer” value is recorded as “much higher”.
